Patent publication US20220241249A1, “PHARMACEUTICAL COMPOSITION AND KIT CONTAINING NOVEL PENAM DERIVATIVE OR SALT THEREOF AND ONE OR MORE COMPOUNDS SELECTED FROM beta-LACTAMASE INHIBITORY COMPOUND AND ANTIBACTERIAL COMPOUND OR SALTS THEREOF” (priority 2019, published 2022)
Converted amounts (≈) assume the structure as drawn.

Legend:
[1] = system: Escherichia coli TK-1747 strain producing CTX-M-15 (strain A); assay: MIC of test compound alone or with β-lactamase inhibitor at 4 μg/mL; format: cell-based; details: Escherichia coli
Procedure: (§1) By using a broth microdilution method, the combinational effect of a test compound and a β-lactamase inhibitor was evaluated.
(§2) The evaluation test for antibacterial activity was performed in the same manner as in Test Example 1.
Escherichia coli TK-1747 strain producing CTX-M-15 (hereinafter, called strain A),

[2] = system: Escherichia coli TK-3113 strain producing IMP-8 (strain D); assay: as above; format: cell-based; details: Escherichia coli
Method in brief: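 Broth microdilution MIC of the test compound, run alone and with a β-lactamase inhibitor fixed at 4 μg/mL. Strains were IMP-8-producing E. coli TK-3113 and other β-lactamase producers, including K. pneumoniae Y-1069 carrying OXA-48 and CTX-M-15.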

[3] = system: Klebsiella pneumoniae Y-1020 strain producing KPC-3 and SHV-12 (strain B); assay: as above; format: cell-based; details: for MIC: Klebsiella pneumoniae, Strain B
Method in brief: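 Broth microdilution MIC of test compound tested alone or combined with a β-lactamase inhibitor fixed at 4 μg/mL, against the KPC-3/SHV-12-producing strain.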

[4] = system: multidrug-resistant Pseudomonas aeruginosa strain (S-2838 strain); assay: Test for protection against systemic infection in mouse with multidrug-resistant Pseudomonas aeruginosa; format: in vivo; details: sc, 72 h, read-out: survival rate 3 days after the inoculation with bacteria
[5] = system: CTX-M-15-containing Escherichia coli strain (TK-1747); assay: Antibacterial activity evaluation test, MIC by broth microdilution (CLSI); format: cell-based; details: Escherichia coli
Method in brief: (§3)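 Colonies grown overnight on Mueller Hinton agar, suspended to 0.5 McFarland and diluted 10-fold as inoculum. Incubation in cation-adjusted Mueller Hinton broth with test compound at 35° C for 16–20 h. MIC (μg/mL) is the lowest concentration with no visible growth.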

[6] = system: OXA-48-containing Klebsiella pneumoniae strain (Y-1062); assay: as above; format: cell-based; details: Klebsiella pneumoniae
Method in brief: as §3

[7] = system: KPC-2-containing Klebsiella pneumoniae strain (Y-995); assay: as above; format: cell-based; details: Klebsiella pneumoniae
Method in brief: as §3

[8] = system: Pseudomonas aeruginosa strain ATCC27853; assay: as above; format: cell-based; details: Pseudomonas aeruginosa, ATCC27853
Method in brief: as §3

[9] = system: GES-19 and GES-20-containing Pseudomonas aeruginosa strain (S-3759); assay: as above; format: cell-based; details: Pseudomonas aeruginosa
Method in brief: as §3

[10] = system: AmpC-derepressed Pseudomonas aeruginosa mutant strain (S-3028); assay: as above; format: cell-based; details: Pseudomonas aeruginosa
Method in brief: as §3

[11] = system: NDM-1-containing Klebsiella pneumoniae strain (Y-1007); assay: as above; format: cell-based; details: Klebsiella pneumoniae
Method in brief: as §3

[12] = system: IMP-1-containing Pseudomonas aeruginosa strain (S-2838); assay: as above; format: cell-based; details: Pseudomonas aeruginosa
Method in brief: as §3

[13] = system: VIM-2-containing Pseudomonas aeruginosa strain (S-3779); assay: as above; format: cell-based; details: Pseudomonas aeruginosa
Method in brief: as §3

[14] = system: Escherichia coli TK-1765 strain producing CMY-2 (strain E); assay: MIC of test compound alone or with β-lactamase inhibitor at 4 μg/mL; format: cell-based; details: Escherichia coli
Procedure: as §1, §2
Escherichia coli TK-1765 strain producing CMY-2 (hereinafter, called strain E)

[15] = test compound alone (β-lactamase inhibitor N/A)

## CC(C)(O/N=C(\C(=O)NC1C(=O)N2C[C@@](C(=O)O)(N3CCN(NC(=O)C(=O)c4ccc(O)c(O)c4Cl)C(=O)C3=O)S[C@H]12)c1csc(N)n1)C(=O)O (stereo partly drawn) [Example 126, (3R,5R,6R)-6-((Z)-2-(2-aminothiazol-4-yl)-2-(((2-carboxypropan-2-yl)oxy)imino)aceta-mido)-3-(4-(2-(2-chloro-3,4-dihydroxy-phenyl)-2-oxoaceta-mido)-2,3-dioxopipera-zin-1-yl)-7-oxo-4-thia-1-azabicyclo[3.2.0]-heptane-3-carboxylic acid]
[1]; AVI added at 4 μg/mL
  MIC: 0.03 µg/mL
[1]; CVA added at 4 μg/mL
  MIC: 0.03 µg/mL
[1]; NAC added at 4 μg/mL
  MIC: 0.03 µg/mL
[1]; SBT added at 4 μg/mL
  MIC: 0.06 µg/mL
[1]; TAZ added at 4 μg/mL
  MIC: 0.06 µg/mL
[1]; ZID added at 4 μg/mL
  MIC: < 0.015 µg/mL
[1]; [15]
  MIC: 0.12 µg/mL
[2]; NAC added at 4 μg/mL
  MIC: 0.03 µg/mL
[2]; VAB added at 4 μg/mL
  MIC: 2 µg/mL
[2]; ZID added at 4 μg/mL
  MIC: 0.03 µg/mL
[2]; [15]
  MIC: 4 µg/mL
[3]; AVI added at 4 μg/mL
  MIC: 1 µg/mL
[3]; NAC added at 4 μg/mL
  MIC: 0.12 µg/mL
[3]; ZID added at 4 μg/mL
  MIC: 0.03 µg/mL
[3]; [15]
  MIC: 4 µg/mL
[3]; for all the bacterial strains (strains A to E), summary of Tables 43 to 47
  antibacterial activity in combination with a β-lactamase inhibitor versus without: higher antibacterial activity
[4]
  responders at 40 mg/kg: ≥ 90%
[5]
  MIC: < 0.06 µg/mL
[6]
  MIC: 1 µg/mL (≈ 1.3 µM)
[7]
  MIC: 0.12 µg/mL (≈ 0.156 µM)
[8]
  MIC: 1 µg/mL (≈ 1.3 µM)
[9]
  MIC: 0.5 µg/mL (≈ 0.65 µM)
[10]
  MIC: 0.5 µg/mL (≈ 0.65 µM)
[11]
  MIC: < 0.06 µg/mL
[12]
  MIC: 2 µg/mL (≈ 2.6 µM)
[13]
  MIC: 1 µg/mL (≈ 1.3 µM)
[14]; [15]
  MIC: 2 µg/mL
[14]; with AVI at 4 μg/mL
  MIC: 0.25 µg/mL
[14]; with TAZ at 4 μg/mL
  MIC: 1 µg/mL
[14]; with VAB at 4 μg/mL
  MIC: 0.5 µg/mL
